Measured values from PMC4979471 (Cell Death Discovery, 2015).
Where two headings read alike, the source gives them in different places.

Tests used:
Test in all cases: Kinase selectivity, P33-radiolabeled assay
Assay type in all cases: biochemical
Details in all cases: 10 μM ATP
AKT1 = target: T1, AKT1 (Homo sapiens, UniProt P31749)
T1 construct: purchased Reaction Biology Corp
Outline: (§1)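 Duplicate single-concentration testing used 10 μM compound. The ATP concentration was also 10 μM.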

ALK2/ACVR1 = target: T2, ALK2/ACVR1 (Homo sapiens, UniProt Q04771)
T2 construct: purchased Reaction Biology Corp
T2 sequence (Q04771 21-509): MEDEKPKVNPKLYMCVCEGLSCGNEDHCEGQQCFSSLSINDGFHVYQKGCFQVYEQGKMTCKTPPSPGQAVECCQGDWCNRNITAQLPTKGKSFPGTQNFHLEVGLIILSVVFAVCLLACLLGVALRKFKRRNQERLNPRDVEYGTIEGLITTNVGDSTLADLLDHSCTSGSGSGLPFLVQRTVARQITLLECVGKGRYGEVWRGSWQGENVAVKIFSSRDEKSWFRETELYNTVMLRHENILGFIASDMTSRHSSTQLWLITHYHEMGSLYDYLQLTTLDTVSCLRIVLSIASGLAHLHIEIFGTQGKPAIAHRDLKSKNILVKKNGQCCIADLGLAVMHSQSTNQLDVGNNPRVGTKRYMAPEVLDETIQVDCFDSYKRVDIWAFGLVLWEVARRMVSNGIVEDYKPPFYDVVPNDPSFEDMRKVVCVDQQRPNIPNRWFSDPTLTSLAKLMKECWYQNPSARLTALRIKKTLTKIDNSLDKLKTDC
Outline: as §1

DCAMKL2 = target: T3, DCAMKL2 (Homo sapiens, UniProt Q8N568)
T3 construct: purchased Reaction Biology Corp
T3 sequence (Q8N568 1-766): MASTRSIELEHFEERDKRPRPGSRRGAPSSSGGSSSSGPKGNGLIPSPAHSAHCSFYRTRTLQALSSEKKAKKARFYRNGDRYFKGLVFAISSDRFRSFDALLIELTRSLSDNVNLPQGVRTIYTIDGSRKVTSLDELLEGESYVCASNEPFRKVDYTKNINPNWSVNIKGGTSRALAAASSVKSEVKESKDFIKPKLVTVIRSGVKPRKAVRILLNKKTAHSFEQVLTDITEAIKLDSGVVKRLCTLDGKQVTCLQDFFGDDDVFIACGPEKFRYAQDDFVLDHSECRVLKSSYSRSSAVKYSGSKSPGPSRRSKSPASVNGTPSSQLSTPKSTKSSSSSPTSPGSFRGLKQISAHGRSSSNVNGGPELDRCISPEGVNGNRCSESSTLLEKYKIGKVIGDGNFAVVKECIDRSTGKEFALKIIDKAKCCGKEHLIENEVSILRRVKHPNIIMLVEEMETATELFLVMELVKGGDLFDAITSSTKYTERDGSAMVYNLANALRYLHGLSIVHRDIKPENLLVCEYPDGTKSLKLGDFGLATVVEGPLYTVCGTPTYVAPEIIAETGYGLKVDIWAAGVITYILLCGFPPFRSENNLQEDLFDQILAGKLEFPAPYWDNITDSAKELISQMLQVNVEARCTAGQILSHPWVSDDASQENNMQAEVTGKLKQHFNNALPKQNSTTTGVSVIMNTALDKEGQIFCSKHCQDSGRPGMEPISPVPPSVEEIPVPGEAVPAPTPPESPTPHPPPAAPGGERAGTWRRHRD
Outline: as §1

EPHA4 = target: T4, EPHA4 (Homo sapiens, UniProt P54764)
T4 construct: purchased Reaction Biology Corp
Outline: as §1

FES/FPS = target: T5, FES/FPS (Homo sapiens, UniProt P07332)
T5 construct: purchased Reaction Biology Corp
Outline: as §1

HIPK1 = target: T6, HIPK1 (Homo sapiens, UniProt Q86Z02)
T6 construct: purchased Reaction Biology Corp
Outline: as §1

MEKK1 = target: T7, MEKK1 (Homo sapiens, UniProt Q13233)
T7 construct: purchased Reaction Biology Corp
Outline: as §1

OSR1/OXSR1 = target: T8, OSR1/OXSR1 (Homo sapiens, UniProt O95747)
T8 construct: purchased Reaction Biology Corp
Outline: as §1

RSK2 = target: T9, RSK2 (Homo sapiens, UniProt P51812)
T9 construct: purchased Reaction Biology Corp
Outline: as §1

STK32B/YANK2 = target: T10, STK32B/YANK2 (Homo sapiens, UniProt Q9NY57)
T10 construct: purchased Reaction Biology Corp
Outline: as §1

ZAK/MLTK = target: T11, ZAK/MLTK (Homo sapiens, UniProt Q9NYL2)
T11 construct: purchased Reaction Biology Corp
Outline: as §1

[1] = read-out: % Enzyme Activity (relative to DMSO controls) AVG
[2] = read-out: % Enzyme Activity (relative to DMSO controls) Data 1
[3] = read-out: % Enzyme Activity (relative to DMSO controls) Data 2

T9 sequence (P51812 whole entry): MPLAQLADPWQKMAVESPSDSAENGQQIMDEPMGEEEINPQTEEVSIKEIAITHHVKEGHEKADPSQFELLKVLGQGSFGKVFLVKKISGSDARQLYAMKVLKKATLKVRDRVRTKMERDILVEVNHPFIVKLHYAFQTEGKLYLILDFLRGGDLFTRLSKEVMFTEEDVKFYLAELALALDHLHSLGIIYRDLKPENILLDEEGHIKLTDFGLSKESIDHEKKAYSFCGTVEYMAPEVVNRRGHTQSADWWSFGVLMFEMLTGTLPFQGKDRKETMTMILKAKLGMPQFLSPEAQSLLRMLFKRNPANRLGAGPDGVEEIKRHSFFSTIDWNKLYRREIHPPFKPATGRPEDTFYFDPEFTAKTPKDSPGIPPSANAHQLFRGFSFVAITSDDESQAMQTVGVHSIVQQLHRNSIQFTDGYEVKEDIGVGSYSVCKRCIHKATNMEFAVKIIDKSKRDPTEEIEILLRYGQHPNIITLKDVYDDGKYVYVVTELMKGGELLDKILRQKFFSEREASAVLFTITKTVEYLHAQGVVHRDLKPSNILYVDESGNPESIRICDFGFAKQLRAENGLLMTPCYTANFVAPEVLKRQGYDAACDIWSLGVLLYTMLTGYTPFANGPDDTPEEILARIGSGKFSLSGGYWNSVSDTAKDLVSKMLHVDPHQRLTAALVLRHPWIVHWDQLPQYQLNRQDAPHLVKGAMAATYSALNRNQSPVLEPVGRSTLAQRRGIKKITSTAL
T11 sequence (Q9NYL2 whole entry): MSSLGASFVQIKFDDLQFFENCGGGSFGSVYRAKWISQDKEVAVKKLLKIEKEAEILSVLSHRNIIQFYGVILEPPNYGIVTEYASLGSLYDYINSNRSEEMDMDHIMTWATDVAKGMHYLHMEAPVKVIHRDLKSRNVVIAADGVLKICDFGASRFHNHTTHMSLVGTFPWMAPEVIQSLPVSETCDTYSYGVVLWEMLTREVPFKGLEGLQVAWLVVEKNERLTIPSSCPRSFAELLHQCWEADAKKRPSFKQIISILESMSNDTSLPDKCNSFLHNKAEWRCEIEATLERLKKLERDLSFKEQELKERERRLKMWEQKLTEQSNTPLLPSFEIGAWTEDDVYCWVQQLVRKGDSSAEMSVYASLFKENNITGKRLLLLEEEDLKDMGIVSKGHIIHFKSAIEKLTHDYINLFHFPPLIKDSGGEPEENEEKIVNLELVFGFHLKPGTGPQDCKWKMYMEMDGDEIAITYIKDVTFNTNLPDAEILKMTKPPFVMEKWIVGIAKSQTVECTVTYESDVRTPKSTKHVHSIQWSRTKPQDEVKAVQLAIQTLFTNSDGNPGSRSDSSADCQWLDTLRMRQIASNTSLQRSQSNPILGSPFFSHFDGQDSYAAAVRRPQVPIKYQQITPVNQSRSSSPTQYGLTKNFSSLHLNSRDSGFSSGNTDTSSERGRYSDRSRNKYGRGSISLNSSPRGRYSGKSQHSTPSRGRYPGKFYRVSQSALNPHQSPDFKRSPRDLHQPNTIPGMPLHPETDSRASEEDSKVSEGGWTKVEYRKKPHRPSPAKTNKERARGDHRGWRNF
T10 sequence (Q9NY57 whole entry): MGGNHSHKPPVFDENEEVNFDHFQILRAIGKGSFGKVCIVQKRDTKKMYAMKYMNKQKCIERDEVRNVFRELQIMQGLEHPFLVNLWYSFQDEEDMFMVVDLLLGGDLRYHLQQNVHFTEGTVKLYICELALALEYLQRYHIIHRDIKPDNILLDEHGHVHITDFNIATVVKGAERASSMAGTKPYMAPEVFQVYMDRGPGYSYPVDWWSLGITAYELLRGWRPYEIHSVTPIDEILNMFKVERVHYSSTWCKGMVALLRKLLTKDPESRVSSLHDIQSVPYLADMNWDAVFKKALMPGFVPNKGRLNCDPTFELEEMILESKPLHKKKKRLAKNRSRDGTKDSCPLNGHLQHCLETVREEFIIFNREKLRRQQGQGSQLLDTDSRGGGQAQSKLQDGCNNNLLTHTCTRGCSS
T5 sequence (P07332 whole entry): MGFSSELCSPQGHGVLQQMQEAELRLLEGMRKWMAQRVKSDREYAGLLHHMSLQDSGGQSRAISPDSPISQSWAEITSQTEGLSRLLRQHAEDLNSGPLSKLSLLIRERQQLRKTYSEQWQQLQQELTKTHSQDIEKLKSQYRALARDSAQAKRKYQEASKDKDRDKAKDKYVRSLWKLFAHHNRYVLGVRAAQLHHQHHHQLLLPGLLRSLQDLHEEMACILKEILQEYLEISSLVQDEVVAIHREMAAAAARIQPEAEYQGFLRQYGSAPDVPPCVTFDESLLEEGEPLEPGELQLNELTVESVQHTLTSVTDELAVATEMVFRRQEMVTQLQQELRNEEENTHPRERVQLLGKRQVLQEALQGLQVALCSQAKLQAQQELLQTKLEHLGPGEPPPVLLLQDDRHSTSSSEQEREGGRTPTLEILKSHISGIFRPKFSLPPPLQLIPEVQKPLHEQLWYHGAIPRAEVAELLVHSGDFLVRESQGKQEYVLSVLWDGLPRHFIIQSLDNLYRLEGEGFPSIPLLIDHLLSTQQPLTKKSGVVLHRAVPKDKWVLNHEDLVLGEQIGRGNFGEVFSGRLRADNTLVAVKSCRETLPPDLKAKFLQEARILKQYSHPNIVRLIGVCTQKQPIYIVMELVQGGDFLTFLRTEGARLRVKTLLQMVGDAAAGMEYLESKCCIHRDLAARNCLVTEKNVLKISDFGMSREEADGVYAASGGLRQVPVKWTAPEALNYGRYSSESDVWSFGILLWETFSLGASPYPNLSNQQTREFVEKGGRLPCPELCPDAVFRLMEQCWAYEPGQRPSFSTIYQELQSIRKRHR
T1 sequence (P31749 whole entry): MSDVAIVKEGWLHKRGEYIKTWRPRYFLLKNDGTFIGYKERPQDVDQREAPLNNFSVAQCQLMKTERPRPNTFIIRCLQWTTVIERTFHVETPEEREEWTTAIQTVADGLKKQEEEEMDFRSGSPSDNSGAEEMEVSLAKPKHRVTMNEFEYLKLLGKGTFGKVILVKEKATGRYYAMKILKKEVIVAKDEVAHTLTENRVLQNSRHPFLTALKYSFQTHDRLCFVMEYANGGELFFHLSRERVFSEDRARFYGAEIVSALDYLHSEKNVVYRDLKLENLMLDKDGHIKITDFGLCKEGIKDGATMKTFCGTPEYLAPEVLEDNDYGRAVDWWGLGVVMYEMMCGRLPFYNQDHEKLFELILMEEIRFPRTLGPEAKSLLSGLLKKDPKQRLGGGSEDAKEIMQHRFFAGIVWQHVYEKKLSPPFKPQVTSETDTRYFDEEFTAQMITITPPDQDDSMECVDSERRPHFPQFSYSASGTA
T7 sequence (Q13233 whole entry): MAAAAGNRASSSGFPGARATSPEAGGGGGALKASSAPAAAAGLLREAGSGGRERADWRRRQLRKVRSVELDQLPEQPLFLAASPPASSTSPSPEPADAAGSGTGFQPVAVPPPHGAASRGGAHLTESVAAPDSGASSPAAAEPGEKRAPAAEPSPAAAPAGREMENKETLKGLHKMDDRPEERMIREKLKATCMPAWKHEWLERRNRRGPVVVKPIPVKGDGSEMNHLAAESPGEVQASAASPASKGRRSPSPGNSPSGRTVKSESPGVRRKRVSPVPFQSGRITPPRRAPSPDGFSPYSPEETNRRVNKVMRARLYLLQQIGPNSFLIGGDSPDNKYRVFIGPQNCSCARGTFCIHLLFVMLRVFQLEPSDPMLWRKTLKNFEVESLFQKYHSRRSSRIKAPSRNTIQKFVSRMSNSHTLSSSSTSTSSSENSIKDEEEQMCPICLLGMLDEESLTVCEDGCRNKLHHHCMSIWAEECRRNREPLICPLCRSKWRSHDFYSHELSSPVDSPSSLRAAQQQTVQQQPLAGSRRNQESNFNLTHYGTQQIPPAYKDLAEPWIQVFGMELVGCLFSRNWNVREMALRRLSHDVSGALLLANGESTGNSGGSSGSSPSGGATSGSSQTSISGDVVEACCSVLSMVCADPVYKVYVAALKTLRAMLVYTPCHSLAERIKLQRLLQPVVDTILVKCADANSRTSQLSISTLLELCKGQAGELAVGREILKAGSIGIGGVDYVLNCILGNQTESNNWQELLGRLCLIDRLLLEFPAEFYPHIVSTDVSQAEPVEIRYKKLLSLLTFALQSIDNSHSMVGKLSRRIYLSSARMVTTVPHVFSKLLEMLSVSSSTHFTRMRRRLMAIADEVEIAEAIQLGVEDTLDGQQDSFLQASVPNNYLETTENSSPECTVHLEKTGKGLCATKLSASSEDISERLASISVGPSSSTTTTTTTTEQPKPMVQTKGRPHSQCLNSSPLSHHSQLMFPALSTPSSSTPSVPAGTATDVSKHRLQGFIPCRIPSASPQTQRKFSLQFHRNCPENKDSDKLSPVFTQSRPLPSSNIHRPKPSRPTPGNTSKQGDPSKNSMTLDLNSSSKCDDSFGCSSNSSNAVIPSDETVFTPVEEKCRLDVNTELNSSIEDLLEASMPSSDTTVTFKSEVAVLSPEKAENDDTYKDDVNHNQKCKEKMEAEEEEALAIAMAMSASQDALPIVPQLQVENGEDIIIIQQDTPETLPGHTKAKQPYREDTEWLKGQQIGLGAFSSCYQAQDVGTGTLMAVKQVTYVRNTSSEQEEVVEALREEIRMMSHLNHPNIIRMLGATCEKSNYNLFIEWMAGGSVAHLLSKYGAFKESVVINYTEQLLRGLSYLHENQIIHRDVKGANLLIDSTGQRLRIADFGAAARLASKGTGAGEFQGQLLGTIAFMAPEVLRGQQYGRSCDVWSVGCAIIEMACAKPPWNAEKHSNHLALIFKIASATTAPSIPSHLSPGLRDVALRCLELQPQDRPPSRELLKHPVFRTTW

CC(C)(C)C(=O)N1N=CC[C@H]1c1ccccc1 [GSK′963]
remaining activity at 10 µM (AKT1; [1]): 100%
remaining activity at 10 µM (AKT1; [2]): 102%
remaining activity at 10 µM (AKT1; [3]): 98.8%
remaining activity at 10 µM (ALK2/ACVR1; [1]): 98.1%
remaining activity at 10 µM (ALK2/ACVR1; [2]): 94%
remaining activity at 10 µM (ALK2/ACVR1; [3]): 102%
remaining activity at 10 µM (DCAMKL2; [1]): 101%
remaining activity at 10 µM (DCAMKL2; [2]): 100%
remaining activity at 10 µM (DCAMKL2; [3]): 102%
remaining activity at 10 µM (EPHA4; [1]): 99.2%
remaining activity at 10 µM (EPHA4; [2]): 99.2%
remaining activity at 10 µM (EPHA4; [3]): 99.2%
remaining activity at 10 µM (FES/FPS; [1]): 91.3%
remaining activity at 10 µM (FES/FPS; [2]): 93.2%
remaining activity at 10 µM (FES/FPS; [3]): 89.5%
remaining activity at 10 µM (HIPK1; [1]): 94.3%
remaining activity at 10 µM (HIPK1; [2]): 95.2%
remaining activity at 10 µM (HIPK1; [3]): 93.3%
remaining activity at 10 µM (MEKK1; [1]): 97.3%
remaining activity at 10 µM (MEKK1; [2]): 101%
remaining activity at 10 µM (MEKK1; [3]): 94%
remaining activity at 10 µM (OSR1/OXSR1; [1]): 120%
remaining activity at 10 µM (OSR1/OXSR1; [2]): 127%
remaining activity at 10 µM (OSR1/OXSR1; [3]): 112%
remaining activity at 10 µM (RSK2; [1]): 106%
remaining activity at 10 µM (RSK2; [2]): 107%
remaining activity at 10 µM (RSK2; [3]): 106%
remaining activity at 10 µM (STK32B/YANK2; [1]): 98.5%
remaining activity at 10 µM (STK32B/YANK2; [2]): 98.6%
remaining activity at 10 µM (STK32B/YANK2; [3]): 98.4%
remaining activity at 10 µM (ZAK/MLTK; [1]): 105%
remaining activity at 10 µM (ZAK/MLTK; [2]): 106%
remaining activity at 10 µM (ZAK/MLTK; [3]): 104%
